Results reported in US10894946B2, “Multiloop engineered heart muscle tissue” (Tissue Systems Holding GmbH, priority 2005, dated 2021).
Entries after “also recorded” stand apart in the source; their conditions may differ.

Test system: engineered heart tissue (EHT) rings from heart cells of neonatal rats
Assay: isometric contraction experiments of single EHT rings (twitch tension, calcium response curves)
Assay type: cell-based, rat
Conditions: culture medium supplemented with 10 pg/ml insulin vs untreated controls; n=4 vs n=3
Experimental: In a further step, the force-generating engineered heart tissue rings, which are in contact with each other, are cultured under conditions which allow the fusion of the contacted ring structures to form an artificial heart muscle construct. For this purpose, the engineered heart tissue rings are normally incubated in culture dishes, wherein the rings are submersed in appropriate culture medium. If a holding device is used for culturing, the device should be designed to allow the tissue rings to stay in continuous contact with the culture medium. The choice of the culture medium is not critical. Conventional media for culturing cardiac myocytes may be used. Such media are known in the art and described, for example, in Zimmermann, W. H. et al., Circulation 106, I 151-7 (2002) and published International Application WO 01/55297. […]
FIGS. 1A-1F show the influences of oxygen, load, and insulin in isometric contraction experiments in single engineered heart tissue (EHT) rings (TT: twitch tension). […] To increase size, 5 EHT rings (FIG. 1D) were stacked in a custom made device that facilitate EHT fusion and contractions under auxotonic load (FIG. 1E), resulting in synchronously contracting multiring EHT constructs (FIG. 1F) ready for in vivo engraftment. *P<0.05 vs. 21% 02, static load, and culture in the absence of insulin (Ctr.), respectively by repeated ANOVA. […]

Substance: insulin
- contracting characteristics (twitch tension) of EHT rings: benefited; also recorded: enhanced contracting characteristics
